Among the test systems are RPMI-8226; PC-3; SK-OV-3; SK-MEL-2; DU-145; U-251; SW-620; KM12; SR; MDA-N; LOX IMVI; HOP-62; OVCAR-4; T47D; CAKI-1; COLO 205; ACHN; A549; NCI-H226; NCI-H522.
Holding throughout (assay): NCI-60 cell line screen, 48 h

Results on eleven molecules are retold here after ChEMBL document CHEMBL1201862, “PubChem BioAssay data set” (2004).

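How tested: cells in 96-well plates exposed to compound for 48 hours at five concentrations. GI50 marks 50% less growth.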 Active and inactive are the calls of the source. Rule as the data show it: active = GI50 up to about 1.1 µM and inactive = higher.

As for `[O-]c1c[n+](-c2ccccc2)no1`, the GI50 with RPMI-8226, with PC-3, in the assay on SK-OV-3, in the assay with SK-MEL-2, with DU-145 and in the assay on U-251 was > 100 µM (inactive) throughout. Moreover, the GI50 in the assay on SW-620, in the assay with KM12, in the assay with SR, in the assay on MDA-N, with LOX IMVI and with HOP-62 was > 100 µM (inactive) each time. For the same molecule, the GI50 with OVCAR-4, in the assay with T47D, in the assay on CAKI-1, with COLO 205, with ACHN and in the assay with A549 was > 100 µM (inactive) in each case.

Take `Cc1ccc(C2(O)CS/C(=N\C34CC5CC(CC(C5)C3)C4)N2C(P(=O)(O)O)P(=O)(O)O)cc1` (centres undefined): the GI50 with RPMI-8226 was > 100 µM (inactive); in the assay on PC-3, 79.3 µM (inactive); with SK-OV-3, 72.8 µM (inactive); with SK-MEL-2 it was 27.5 µM (inactive); in the assay with DU-145, > 100 µM (inactive); with U-251, 38.6 µM (inactive). Further, the GI50 with SW-620 was > 100 µM (inactive); in the assay on KM12, > 100 µM (inactive); in the assay with SR, 29.2 µM (inactive); in the assay on MDA-N, 42 µM (inactive); in the assay on HOP-62 it was 49.1 µM (inactive); with NCI-H226 it was > 100 µM (inactive). Further, the GI50 in the assay on OVCAR-4 was > 100 µM (inactive); in the assay on T47D, 80.2 µM (inactive); in the assay with CAKI-1, > 100 µM (inactive); with COLO 205, > 100 µM (inactive); with ACHN, > 100 µM (inactive); in the assay with A549 it was 76.7 µM (inactive).

For the molecule `O=[N+]([O-])c1ccc2c(c1)C(N1CCN(CCO)CC1)Cc1ccc(F)cc1S2` (centres undefined), the GI50 in the assay with PC-3 was 2.65 µM (inactive); in the assay on NCI-H522, 3.48 µM (inactive); in the assay with SK-OV-3, 17.3 µM (inactive); in the assay with DU-145, 14.8 µM (inactive); in the assay on U-251 it was 10.1 µM (inactive); in the assay with SW-620, 4.95 µM (inactive). Moreover, the GI50 was 6.64 µM (inactive) in the assay with KM12; 4.04 µM (inactive) in the assay with SR; 11 µM (inactive) in the assay with MDA-N; 17.1 µM (inactive) in the assay with HOP-62; 9.1 µM (inactive) with NCI-H226; 12.4 µM (inactive) in the assay with OVCAR-4. The GI50 is 17.4 µM (inactive) in the assay on T47D; 13.1 µM (inactive) in the assay on CAKI-1; 5.48 µM (inactive) in the assay on COLO 205; 4.44 µM (inactive) in the assay with ACHN; 12.1 µM (inactive) in the assay on A549.

As for `CC(=O)Oc1ccc(C2SCc3nc4ccccc4n32)cc1` (centres undefined), the GI50 is 14.5 µM (inactive) in the assay with RPMI-8226; 24.2 µM (inactive) in the assay with PC-3; 22.8 µM (inactive) in the assay with NCI-H522; 26.8 µM (inactive) in the assay with SK-OV-3; 22.5 µM (inactive) in the assay on SK-MEL-2; 51.5 µM (inactive) in the assay on DU-145. Further, the GI50 was 25.6 µM (inactive) in the assay on U-251; 35.8 µM (inactive) with SW-620; 15.3 µM (inactive) in the assay with KM12; 15.6 µM (inactive) with SR; 14.8 µM (inactive) in the assay on MDA-N; 29.6 µM (inactive) with LOX IMVI. Besides, the GI50 in the assay on HOP-62 was 41 µM (inactive); in the assay with OVCAR-4 it was 24.4 µM (inactive); in the assay with T47D it was 18.3 µM (inactive); in the assay with CAKI-1 it was 24.4 µM (inactive); in the assay with COLO 205, 19.3 µM (inactive); with ACHN it was 30.8 µM (inactive). In addition, the GI50 in the assay on A549 is 32.2 µM (inactive).

For `CC1(C)Cc2c(cnn2-c2ccc(C(F)(F)F)cc2)-c2[nH]c(-c3ccc(O)cc3)nc21`, the GI50 in the assay on PC-3 was 16 µM (inactive); with NCI-H522, 8.99 µM (inactive); with SK-OV-3, 21.4 µM (inactive); in the assay with DU-145, 17.5 µM (inactive); with U-251 it was 12.3 µM (inactive); with SW-620, 14.5 µM (inactive). Moreover, the GI50 was 13 µM (inactive) in the assay on KM12; 4.71 µM (inactive) with SR; 14.6 µM (inactive) in the assay on MDA-N; 17.8 µM (inactive) with LOX IMVI; 21.4 µM (inactive) with HOP-62; 27.2 µM (inactive) in the assay on NCI-H226. Also, the GI50 in the assay on OVCAR-4 was 12.2 µM (inactive); in the assay on T47D it was 16.7 µM (inactive); in the assay on CAKI-1, 17.4 µM (inactive); in the assay on COLO 205, 13.7 µM (inactive); in the assay on ACHN it was 14.6 µM (inactive); in the assay with A549, 12.7 µM (inactive).

With `CC[C@@H]1/C=C/C=C/C[C@H](C)[C@@H](O)[C@@H](C)C(=O)[C@H](C)[C@@H](O)[C@H](C)C(=O)[C@H](C)[C@@H](O)[C@H](C)/C=C/C(=O)O[C@H]2[C@@H](C)[C@@H](CC1)O[C@@]1(CC[C@@H](C)[C@@H](CC(C)O)O1)[C@@H]2C` (some centres undefined), the GI50 is 0.057 µM (active) in the assay on RPMI-8226; 0.00678 µM (active) with PC-3; 0.0188 µM (active) in the assay with NCI-H522; 7.76 µM (inactive) with SK-OV-3; 4.58 µM (inactive) with SK-MEL-2; 3.37 µM (inactive) in the assay with DU-145. The GI50 in the assay on U-251 is 0.00361 µM (active); in the assay on SW-620, 5.32 µM (inactive); in the assay with KM12, 3.41 µM (inactive); with SR, 3.01 µM (inactive); in the assay with MDA-N, 3.06 µM (inactive); in the assay on LOX IMVI, 5.83 µM (inactive). Further, the GI50 in the assay with HOP-62 was 4.38 µM (inactive); in the assay on OVCAR-4 it was 0.057 µM (active); in the assay with T47D, < 0.0025 µM (active); with CAKI-1 it was 4.15 µM (inactive); in the assay with COLO 205, 0.00408 µM (active); with ACHN, 0.17 µM (active). Besides, the GI50 with A549 was 0.012 µM (active).

On to `COC(=O)C(CC12CC3CC(CC(C3)C1)C2)NC(=O)C(N)CC(=O)O` (centres undefined), for which the GI50 in the assay on RPMI-8226, in the assay on PC-3, in the assay on NCI-H522, in the assay on SK-OV-3, in the assay on SK-MEL-2 and in the assay on DU-145 was > 100 µM (inactive) in each case. Moreover, the GI50 with U-251, in the assay on SW-620, in the assay with KM12, in the assay on SR, in the assay with MDA-N and in the assay on HOP-62 was > 100 µM (inactive) each time. Also, the GI50 in the assay on OVCAR-4, with T47D, in the assay on CAKI-1, with COLO 205, in the assay with ACHN and in the assay on A549 was > 100 µM (inactive) each time.

As for `COc1cc(Cn2c3c(c4c(C(=O)NCCN(C)C)c(O)ccc42)C(=O)c2ccccc2C3=O)cc(OC)c1`, the GI50 is 1.87 µM (inactive) with RPMI-8226; 1.7 µM (inactive) in the assay with PC-3; 1.71 µM (inactive) with NCI-H522; 1.94 µM (inactive) in the assay with SK-OV-3; 1.8 µM (inactive) in the assay with SK-MEL-2; 1.67 µM (inactive) with DU-145. Moreover, the GI50 in the assay on U-251 was 1.64 µM (inactive); in the assay on KM12 it was 1.58 µM (inactive); in the assay with SR, 0.31 µM (active); in the assay on MDA-N, 1.63 µM (inactive); in the assay with HOP-62, 2 µM (inactive); with NCI-H226 it was 6.87 µM (inactive). Moreover, the GI50 with OVCAR-4 is 1.71 µM (inactive); in the assay with T47D, 1.8 µM (inactive); with CAKI-1 it was 1.68 µM (inactive); with COLO 205, 1.81 µM (inactive); in the assay on ACHN, 1.48 µM (inactive); in the assay on A549, 1.88 µM (inactive).

For `O=C(O)CSC(CC(=O)c1ccc(Cl)cc1)c1ccc(Cl)cc1` (centres undefined), the GI50 in the assay on RPMI-8226 is 6.95 µM (inactive); in the assay on PC-3, 37.4 µM (inactive); in the assay on NCI-H522, 14.7 µM (inactive); in the assay with SK-OV-3, 36.5 µM (inactive); in the assay on SK-MEL-2, 50.8 µM (inactive); in the assay on DU-145, 34.8 µM (inactive). Also, the GI50 was 29 µM (inactive) in the assay with U-251; 4.17 µM (inactive) in the assay on SW-620; 8.07 µM (inactive) in the assay with KM12; 2.36 µM (inactive) in the assay with SR; 20.6 µM (inactive) in the assay with MDA-N; 17.3 µM (inactive) in the assay with LOX IMVI. The GI50 was 32.9 µM (inactive) with HOP-62; 27.4 µM (inactive) with OVCAR-4; 29.3 µM (inactive) in the assay with T47D; 35.3 µM (inactive) in the assay with CAKI-1; 49.8 µM (inactive) in the assay on COLO 205; 79.1 µM (inactive) in the assay on ACHN. Besides, the GI50 with A549 is 38.4 µM (inactive).

Consider `OCC1OC(OCC(O)C(O)C(O)C(/C=N/Nc2ccccc2)=N/Nc2ccccc2)C(O)C(O)C1O` (centres undefined), for which the GI50 in the assay on RPMI-8226, in the assay on PC-3, in the assay on SK-OV-3, in the assay on DU-145, with U-251 and with SW-620 was > 100 µM (inactive) throughout. The GI50 in the assay with KM12 was > 100 µM (inactive); with SR, > 100 µM (inactive); in the assay with MDA-N it was > 100 µM (inactive); with LOX IMVI, 13.2 µM (inactive); in the assay with HOP-62, > 100 µM (inactive); in the assay on T47D, 17 µM (inactive). Besides, the GI50 with CAKI-1 is 34.4 µM (inactive); in the assay with COLO 205, 44.6 µM (inactive); in the assay with ACHN, 51.9 µM (inactive); with A549 it was > 100 µM (inactive).

In the case of `CCCCCC(/C=C/[C@@H]1[C@@H](C(O)CCCCCC(=O)OC)C(=O)C[C@H]1O[Si](C)(C)C(C)(C)C)OCOCCOC` (some centres undefined), the GI50 was 2.71 µM (inactive) with RPMI-8226; 13.8 µM (inactive) with PC-3; 3.92 µM (inactive) in the assay on NCI-H522; 18.8 µM (inactive) with SK-OV-3; 17 µM (inactive) in the assay on SK-MEL-2; 18 µM (inactive) in the assay with DU-145. The GI50 with U-251 is 7.26 µM (inactive); in the assay on SW-620, 5.12 µM (inactive); in the assay with KM12, 6.62 µM (inactive); in the assay on MDA-N it was 8.51 µM (inactive); in the assay with LOX IMVI, 3.54 µM (inactive); in the assay on HOP-62, 16.9 µM (inactive). The GI50 with NCI-H226 was 18.2 µM (inactive); in the assay on OVCAR-4, 18.5 µM (inactive); in the assay with T47D, 21.4 µM (inactive); in the assay with CAKI-1, 17.2 µM (inactive); in the assay on COLO 205, 18.9 µM (inactive); in the assay with ACHN it was 15.3 µM (inactive). Also, the GI50 in the assay with A549 was 24.6 µM (inactive).
